According to patent publication US20240081377A1, “USING ORGANOIDS AND/OR SPHEROIDS TO CULTIVATE MEAT” (Orbillion Bio, Inc., priority 2020, published 2024):

Key:
spheroids = assay: Spheroid expansion (spheroid diameter) following recombinant growth factor treatment; type: cell-based; conditions: wells 300 μm in diameter, 3 days after treatment
Text: (§1) FIG. 20A to FIG. 20B illustrates spheroid diameter of cells cultured in wells measuring 900 μm in diameter for 12 days following growth factor treatment with fibroblast growth factor (FGF), hepatocyte growth factor (HGF), and insulin-like growth factor (IGF). More specifically, FIG. 20A depicts spheroid diameter in and FIG. 20B depicts spheroid diameter as a percentage of size increase as compared to control.
as §1, with “21A” for “20A”, “21B depicts” for “20B illustrates”, “300” for “900”, “21B” for “20B”

A549 spheroids = assay: On-chip drug toxicity screening of A549 spheroids (dye exclusion assay, Hoechst / ethidium homodimer-1); type: cell-based, human; conditions: A549 spheroids of all sizes (300-1000 μm), different concentrations, 24 hours
Description: A549 cells were seeded at a concentration of 1×10^6 cells per ml and cultivated for three days under standard cell culture conditions under bi-directional flow (e.g. using a rocking device). Stock solutions of 10 mM cisplatin (Sigma-Aldrich, Austria) in DMSO and 10 mM doxorubicin (Sigma-Aldrich, Austria) in PBS were prepared. Doxorubicin and cisplatin were dissolved in cell culture medium to yield concentrations of 0.5, 1, 5, 10, 25, 50 and 500 μM for the treatment of A549 spheroids. Cell culture medium within the channels of the devices was replaced with drug containing medium and incubated for 24 hours prior to cell death analyses. One channel on a separate device was used as an untreated control. […] Raw fluorescence signals were processed and dose-response curves were generated by Sigmoidal-4PL non-linear regression analysis.
Live A549 cell spheroids of different sizes (300 μm, 500 μm, 700 μm, 900 μm, 1000 μm in diameter) were stained with Hoechst; blue and Ethidium homodimer-1; red and treated with different concentrations (100 μM, 10 μM and 1 μM) of CIS, DOX, and CIS:DOX to screen drug toxicity for up to 24 hours following drug treatment. […] Viability of live human A549 cell spheroids of different sizes (measured as a % of the untreated control) was calculated as a function of chemotherapy drug treatment concentration (CIS, DOX, and CIS:DOX). […]

For “HGF: recombinant hepatocyte growth factor”, which “spheroid diameter, size increase as compared to control” value (spheroids) is on record?
Its value is “largest difference”.

`COc1cccc2c1C(=O)c1c(O)c3c(c(O)c1C2=O)C[C@@](O)(C(=O)CO)C[C@@H]3O[C@H]1C[C@H](N)[C@H](O)[C@H](C)O1` [DOX, Doxorubicin] was tested. Which “viability of A549 cell spheroids (measured as a % of the untreated control)” value (A549 spheroids) did it give?
The value was “decreased sharply”.
